In the experiment the target is TCF7L2 (Homo sapiens). Briefly: Inhibition of beta-catenin/Tcf4 (unknown origin) in human SW480 cells assessed as reduction in cyclin D1 level qRT-PCR analysis. In general terms: Real-time PCR tracks product formation cycle by cycle.

Structures are written as SMILES.

Results on one compound are retold here after BindingDB's records for PubMed 33822624 (Ocean University of China, 2021).

One may read the IC50 as the concentration that inhibits the measured activity by half.

For `CC[C@H](C)[C@H](NC(=O)[C@H]1Cc2cn(nn2)CCCC[C@H](NC(=O)[C@H](CC(C)C)NC(=O)[C@H](CO)NC(=O)[C@H](CCCNC(=N)N)NC(=O)[C@H](CCC(=O)O)NC(=O)[C@H](CCCNC(=N)N)NC(=O)[C@H](Cc2cnc[nH]2)NC(=O)[C@H]2Cc3cn(nn3)CCCC[C@H](NC(=O)[C@H](CO)NC(=O)[C@H](CC(C)C)NC(C)=O)C(=O)N[C@@H](CCC(=O)O)C(=O)N[C@@H](CCC(N)=O)C(=O)N[C@@H](CC(C)C)C(=O)N2)C(=O)N[C@@H]([C@@H](C)O)C(=O)N[C@@H](CC(C)C)C(=O)N[C@@H](CCCNC(=N)N)C(=O)N1)C(=O)N[C@@H](CCC(N)=O)C(=O)N[C@@H](CCCNC(=N)N)C(=O)N[C@@H](CC(C)C)C(=O)N[C@@H](CC(C)C)C(=O)N[C@@H](Cc1ccccc1)C(N)=O`, the IC50 worked out at 4.2 µM.
